For 1 compound, Kd results are on record in article PMC7532676, “Salidroside can target both P4HB-mediated inflammation and melanogenesis of the skin” (Theranostics, 2020).

For orientation: Kd means the constant that tells how readily two partners part at equilibrium. The low end stands for higher affinity, the high end for lower affinity.

The assay concerns the target prolyl 4-hydroxylase beta polypeptide (P4HB) (Homo sapiens, UniProt P07237). In words: surface plasmon resonance (Biacore […]). The class given is binding. (In general: In SPR one partner is held on a chip, and binding of the other changes the refractive index at the surface.)

prolyl 4-hydroxylase beta polypeptide (P4HB), sequence (P07237 18-508): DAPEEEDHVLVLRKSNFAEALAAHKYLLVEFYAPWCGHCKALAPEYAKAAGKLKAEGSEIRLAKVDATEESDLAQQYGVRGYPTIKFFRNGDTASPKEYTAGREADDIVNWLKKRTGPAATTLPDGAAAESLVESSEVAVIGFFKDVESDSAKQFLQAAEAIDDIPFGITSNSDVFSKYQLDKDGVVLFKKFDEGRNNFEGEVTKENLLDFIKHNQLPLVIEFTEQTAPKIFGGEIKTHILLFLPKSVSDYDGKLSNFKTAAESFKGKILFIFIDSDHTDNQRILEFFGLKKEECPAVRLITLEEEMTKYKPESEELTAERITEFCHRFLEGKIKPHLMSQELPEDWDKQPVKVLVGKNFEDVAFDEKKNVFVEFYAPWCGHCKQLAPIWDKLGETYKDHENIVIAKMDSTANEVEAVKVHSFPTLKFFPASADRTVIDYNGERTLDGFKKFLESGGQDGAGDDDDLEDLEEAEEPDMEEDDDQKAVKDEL

With `OC[C@H]1O[C@@H](OCCc2ccc(O)cc2)[C@H](O)[C@@H](O)[C@@H]1O` [SAL, Salidroside], the dissociation constant (Kd) worked out at 13.8 µM.
